Holding throughout (test): relative viability (nuclei count vs DMSO), 5 days (fraction); higher = more cells survive
Compound in the assay “Bortezomib + Trametinib”: CC(C)C[C@H](NC(=O)[C@H](Cc1ccccc1)NC(=O)c1cnccn1)B(O)O [Bortezomib] + CC(=O)Nc1cccc(-n2c(=O)n(C3CC3)c(=O)c3c(Nc4ccc(I)cc4F)n(C)c(=O)c(C)c32)c1 [Trametinib] (partner 0.02 µM)
The method, boiled down: (§1)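 Lung cancer cell lines in 1536-well plates were dosed by pin tool the day after seeding, either with one drug alone or with a fixed anchor-drug dose plus five library-drug doses (not always all listed) in √10 steps. After 5 days, cells were fixed and their nuclei stained in one step (final 0.05% Triton X-100, 1% formaldehyde, 1 ug/ml Hoechst), then counted on 4× images. Relative viability is the nuclei count in treated wells divided by that in vehicle wells. Values are medians of duplicate plates.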

Compound in the assay “Bortezomib + Pictilisib”: CC(C)C[C@H](NC(=O)[C@H](Cc1ccccc1)NC(=O)c1cnccn1)B(O)O [Bortezomib] + CS(=O)(=O)N1CCN(Cc2cc3nc(-c4cccc5[nH]ncc45)nc(N4CCOCC4)c3s2)CC1 [Pictilisib] (partner 1 µM)
The method, boiled down:
as §1

Compound in the assay “Obatoclax + Phenformin”: COC1=CC(c2cc3ccccc3[nH]2)=N/C1=C\c1[nH]c(C)cc1C [Obatoclax] + N=C(N)NC(=N)NCCc1ccccc1 [Phenformin] (partner 250 µM)
The method, boiled down:
as §1

Compound in the assay “Obatoclax + Decitabine”: COC1=CC(c2cc3ccccc3[nH]2)=N/C1=C\c1[nH]c(C)cc1C [Obatoclax] + Nc1ncn([C@H]2C[C@H](O)[C@@H](CO)O2)c(=O)n1 [Decitabine] (partner 2 µM)
The method, boiled down: as §1

As to NCI-H650, the relative viability with Bortezomib + Trametinib (first compound 0.0002 µM) was found to be 0.936; with Bortezomib + Trametinib (first compound 0.000632 µM) it was 1.1; with Bortezomib + Trametinib (first compound 0.002 µM), 0.857; with Bortezomib + Trametinib (first compound 0.006325 µM) it was 0.361; in the assay with Bortezomib + Trametinib (first compound 0.02 µM), 0.146; in the assay with Bortezomib + Pictilisib (first compound 0.000632 µM), 0.695. Besides, the relative viability with Bortezomib + Pictilisib (first compound 0.002 µM) amounted to 0.551; in the assay with Bortezomib + Pictilisib (first compound 0.006325 µM), 0.328; with Bortezomib + Pictilisib (first compound 0.02 µM), 0.205; in the assay with Obatoclax + Phenformin (first compound 0.01 µM) it was 0.454; in the assay with Obatoclax + Phenformin (first compound 0.03162 µM), 0.395; in the assay with Obatoclax + Phenformin (first compound 0.3162 µM), 0.314. In addition, the relative viability with Obatoclax + Phenformin (first compound 1 µM) was determined as 0.288; in the assay with Obatoclax + Decitabine (first compound 0.01 µM), 0.299; with Obatoclax + Decitabine (first compound 0.03162 µM) it was 0.312; with Obatoclax + Decitabine (first compound 0.3162 µM), 0.237; with Obatoclax + Decitabine (first compound 1 µM), 0.217.
